pIC50: −log10 of the molar value.
Experiments:
CDK4/Cyclin D1 = CDK4/Cyclin D1 (Homo sapiens (Human), UniProt P11802); assay: TR-FRET kinase inhibition assay, CDK4/Cyclin D1; format: biochemical; conditions: 1 mM ATP, 0.15 μM Rb (Ser780)-biotin substrate, read-out: CDK4D1 IC50
Procedure, shortened: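 Kinase was preincubated with compound for 60 min at room temperature, then reacted with ATP and Rb (Ser780)-biotin substrate for 120 min. IC50 came from a four-parameter logistic fit.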

CDK6/Cyclin D3 = CDK6/Cyclin D3 (Homo sapiens (Human), UniProt Q00534); assay: TR-FRET kinase inhibition assay, CDK6/Cyclin D3; format: biochemical; conditions: 1 mM ATP, 0.15 μM Rb (Ser780)-biotin substrate, read-out: CDK6D3 IC50
Chain of CDK6/Cyclin D3 (Q00534 whole entry): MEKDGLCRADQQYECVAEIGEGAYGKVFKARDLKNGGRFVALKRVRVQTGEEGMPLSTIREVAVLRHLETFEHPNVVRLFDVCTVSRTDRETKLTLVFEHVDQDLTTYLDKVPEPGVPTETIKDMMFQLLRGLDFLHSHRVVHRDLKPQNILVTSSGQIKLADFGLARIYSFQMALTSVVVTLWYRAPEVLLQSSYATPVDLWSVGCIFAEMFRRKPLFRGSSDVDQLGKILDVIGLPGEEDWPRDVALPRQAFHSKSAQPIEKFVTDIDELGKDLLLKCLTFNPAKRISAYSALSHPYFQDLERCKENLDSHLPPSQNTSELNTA
Chain of CDK6/Cyclin D3 (P30281 whole entry partner): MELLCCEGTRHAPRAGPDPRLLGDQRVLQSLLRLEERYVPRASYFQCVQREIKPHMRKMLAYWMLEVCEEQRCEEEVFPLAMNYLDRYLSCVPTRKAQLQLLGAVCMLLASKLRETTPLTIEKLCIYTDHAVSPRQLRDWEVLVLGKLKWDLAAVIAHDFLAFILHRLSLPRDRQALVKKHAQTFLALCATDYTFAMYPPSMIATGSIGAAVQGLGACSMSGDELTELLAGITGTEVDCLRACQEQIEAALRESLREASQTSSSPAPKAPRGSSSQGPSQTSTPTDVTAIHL
Procedure, shortened: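 Kinase preincubated 60 min at room temperature with 0–10 μM compound; reaction started with 1 mM ATP and 0.15 μM Rb (Ser780)-biotin, run 120 min at room temperature in HEPES pH 7.0, 50 mM MgCl2. pRb detected by TR-FRET (665/620 nm ratio); IC50 from four-parameter logistic fit.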

Chain of CDK4/Cyclin D1 (P11802 whole entry): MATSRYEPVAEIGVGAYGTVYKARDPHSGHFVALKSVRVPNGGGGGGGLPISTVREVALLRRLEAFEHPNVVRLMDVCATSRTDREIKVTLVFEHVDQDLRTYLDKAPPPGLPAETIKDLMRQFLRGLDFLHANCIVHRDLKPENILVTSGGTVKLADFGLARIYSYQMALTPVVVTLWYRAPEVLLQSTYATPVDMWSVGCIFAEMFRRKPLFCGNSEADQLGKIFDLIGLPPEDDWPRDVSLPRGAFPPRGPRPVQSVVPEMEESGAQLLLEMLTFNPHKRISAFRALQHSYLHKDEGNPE
Chain of CDK4/Cyclin D1 (P24385 whole entry partner): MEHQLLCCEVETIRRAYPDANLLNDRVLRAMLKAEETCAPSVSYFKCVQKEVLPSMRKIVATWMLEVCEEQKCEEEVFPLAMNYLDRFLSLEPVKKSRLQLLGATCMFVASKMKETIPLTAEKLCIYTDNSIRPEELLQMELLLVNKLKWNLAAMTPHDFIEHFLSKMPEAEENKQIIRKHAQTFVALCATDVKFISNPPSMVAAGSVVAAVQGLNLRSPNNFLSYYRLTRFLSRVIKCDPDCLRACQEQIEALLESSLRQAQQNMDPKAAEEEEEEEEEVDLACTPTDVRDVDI

Row | pIC50 (CDK4/Cyclin D1) | pIC50 (CDK6/Cyclin D3) | Structure (SMILES)
1 | 7.27 | 6.19 | CC(C)n1c(CN2CCC[C@@]3(CCN(C)C3=O)C2)cc(=O)c2ccc(-c3nc(N[C@@H]4CCOC[C@H]4O)ncc3F)cc21 [Example 51, (R)-7-((7-(5-fluoro-2-(((3S,4R)-3-hydroxytetrahydro-2H-pyran-4-yl)amino)pyrimidin-4-yl)-1-isopropyl-4-oxo-1,4-dihydroquinolin-2-yl)methyl)-2-methyl-2,7-diazaspiro[4,5]decan-1-one]
2 | 7.68 | 6.56 | CC(C)n1c(CNc2ccc(F)cc2)cc(=O)c2ccc(-c3nc(N[C@@H]4CCOC[C@H]4O)ncc3F)cc21 [Example 96, 7-(5-fluoro-2-(((3S,4R)-3-hydroxytetrahydro-2H-pyran-4-yl)amino)pyrimidin-4-yl)-2-(((4-fluorophenyl)amino)methyl)-1-isopropylquinolin-4(1H)-one]
3 | 8.57 | 6.85 | Cc1c(CN2[C@H](C)COC[C@H]2C)n(C(C)C)c2cc(-c3nc(N[C@@H]4CCOC[C@H]4O)ncc3F)ccc2c1=O [Example 71, 2-(((3R,5R)-3,5-dimethylmorpholino)methyl)-7-(5-fluoro-2-(((3S,4R)-3-hydroxytetrahydro-2H-pyran-4-yl)amino)pyrimidin-4-yl)-1-isopropyl-3-methylquinolin-4(1H)-one]
4 | 8.17 | 6.77 | CC(C)n1c(CN2CC[C@@H](F)[C@H](O)C2)cc(=O)c2ccc(-c3nc(N[C@@H]4CCOC[C@H]4O)ncc3F)cc21 [Example 84, 7-(5-fluoro-2-(((3S,4R)-3-hydroxytetrahydro-2H-pyran-4-yl)amino)pyrimidin-4-yl)-2-(((3R,4R)-4-fluoro-3-hydroxypiperidin-1-yl)methyl)-1-isopropylquinolin-4(1H)-one]
5 | 7.38 | 6.15 | CNC(=O)c1cc(=O)c2ccc(-c3nc(N[C@@H]4CCOC[C@H]4O)ncc3Cl)cc2n1C(C)C [Example 14, 7-(5-chloro-2-(((3S,4R)-3-hydroxytetrahydro-2H-pyran-4-yl)amino)pyrimidin-4-yl)-1-isopropyl-N-methyl-4-oxo-1,4-dihydroquinoline-2-carboxamide]
6 | 7.82 | 6.59 | Cc1c(Cl)c(=O)c2ccc(-c3nc(N[C@@H]4CCOC[C@H]4O)ncc3F)cc2n1C(C)C [Example 15, 3-chloro-7-(5-fluoro-2-(((3S,4R)-3-hydroxytetrahydro-2H-pyran-4-yl)amino)pyrimidin-4-yl)-1-isopropyl-2-methylquinolin-4(1H)-one]
7 | 8.80 | 7.16 | Cc1c(CN2CCC[C@@H](O)C2)n(C(C)C)c2cc(-c3nc(N[C@@H]4CCOC[C@H]4O)ncc3F)ccc2c1=O [Example 122, 7-(5-fluoro-2-(((3S,4R)-3-hydroxytetrahydro-2H-pyran-4-yl)amino)pyrimidin-4-yl)-2-(((R)-3-hydroxypiperidin-1-yl)methyl)-1-isopropyl-3-methylquinolin-4(1H)-one]
8 | 8.39 | 6.39 | CC(C)n1c(CN2CCC[C@@H](C#N)C2)cc(=O)c2ccc(-c3nc(N[C@@H]4CCOC[C@H]4O)ncc3F)cc21 [Example 88, (R)-1-((7-(5-fluoro-2-(((3S,4R)-3-hydroxytetrahydro-2H-pyran-4-yl)amino)pyrimidin-4-yl)-1-isopropyl-4-oxo-1,4-dihydroquinolin-2-yl)methyl)piperidine-3-carbonitrile]
9 | 7.52 | 5.93 | CC(C)n1c(CN2CC[C@](C)(O)C2)cc(=O)c2ccc(-c3nc(N[C@@H]4CCOC[C@H]4O)ncc3F)cc21 [Example 61, 7-(5-fluoro-2-(((3S,4R)-3-hydroxytetrahydro-2H-pyran-4-yl)amino)pyrimidin-4-yl)-2-(((S)-3-hydroxy-3-methylpyrrolidin-1-yl)methyl)-1-isopropylquinolin-4(1H)-one]
10 | 7.00 | 6.09 | CC(C)n1ccc(=O)c2c(Cl)cc(-c3nc(N[C@@H]4CCOC[C@H]4O)ncc3Cl)cc21 [Example 1, 5-chloro-7-(5-chloro-2-(((3S,4R)-3-hydroxytetrahydro-2H-pyran-4-yl)amino)pyrimidin-4-yl)-1-isopropylquinolin-4(1H)-one]
11 | 7.47 | 6.07 | CC(C)n1c(CN2CCCOCC2)cc(=O)c2ccc(-c3nc(N[C@@H]4CCOC[C@H]4O)ncc3F)cc21 [Example 79, 2-((1,4-oxazepan-4-yl)methyl)-7-(5-fluoro-2-(((3S,4R)-3-hydroxytetrahydro-2H-pyran-4-yl)amino)pyrimidin-4-yl)-1-isopropylquinolin-4(1H)-one]
12 | 7.68 | 6.16 | CC(C)n1c(CN2CCC[C@H](F)C2)cc(=O)c2ccc(-c3nc(N[C@@H]4CCOC[C@H]4O)ncc3F)cc21 [Example 69, 7-(5-fluoro-2-(((3S,4R)-3-hydroxytetrahydro-2H-pyran-4-yl)amino)pyrimidin-4-yl)-2-(((S)-3-fluoropiperidin-1-yl)methyl)-1-isopropylquinolin-4(1H)-one]
13 | 7.68 | 6.19 | CC(C)n1c(CN2C[C@@H](F)[C@@H](O)C2)cc(=O)c2ccc(-c3nc(N[C@@H]4CCOC[C@H]4O)ncc3F)cc21 [Example 45, 7-(5-fluoro-2-(((3S,4R)-3-hydroxytetrahydro-2H-pyran-4-yl)amino)pyrimidin-4-yl)-2-(((3R,4S)-3-fluoro-4-hydroxypyrrolidin-1-yl)methyl)-1-isopropylquinolin-4(1H)-one]
14 | 7.72 | 6.31 | CC(C)n1c(CN2CC[C@H](F)[C@@H](O)C2)cc(=O)c2ccc(-c3nc(N[C@@H]4CCOC[C@H]4O)ncc3F)cc21 [Example 85, 7-(5-fluoro-2-(((3S,4R)-3-hydroxytetrahydro-2H-pyran-4-yl)amino)pyrimidin-4-yl)-2-(((3S,4S)-4-fluoro-3-hydroxypiperidin-1-yl)methyl)-1-isopropylquinolin-4(1H)-one]
15 | 7.46 | 6.41 | CC(C)n1c(C(=O)NCCC#N)cc(=O)c2ccc(-c3nc(N[C@@H]4CCOC[C@H]4O)ncc3Cl)cc21 [Example 21, 7-(5-chloro-2-(((3S,4R)-3-hydroxytetrahydro-2H-pyran-4-yl)amino)pyrimidin-4-yl)-N-(2-cyanoethyl)-1-isopropyl-4-oxo-1,4-dihydroquinoline-2-carboxamide]
16 | 7.62 | 6.36 | CNC(=O)c1c(C)c(=O)c2ccc(-c3nc(N[C@@H]4CCOC[C@H]4O)ncc3F)cc2n1C(C)C [Example 24, 7-(5-fluoro-2-(((3S,4R)-3-hydroxytetrahydro-2H-pyran-4-yl)amino)pyrimidin-4-yl)-1-isopropyl-N,3-dimethyl-4-oxo-1,4-dihydroquinoline-2-carboxamide]
17 | 7.62 | 6.30 | CNC(=O)c1cc(=O)c2c(F)cc(-c3nc(N[C@@H]4CCOC[C@H]4O)ncc3F)cc2n1C(C)C [Example 19, 5-fluoro-7-(5-fluoro-2-(((3S,4R)-3-hydroxytetrahydro-2H-pyran-4-yl)amino)pyrimidin-4-yl)-1-isopropyl-N-methyl-4-oxo-1,4-dihydroquinoline-2-carboxamide]
18 | 8.41 | 6.76 | Cc1c(CN2CCCC(F)(F)C2)n(C(C)C)c2cc(-c3nc(N[C@@H]4CCOC[C@H]4O)ncc3F)ccc2c1=O [Example 116, 2-((3,3-difluoropiperidin-1-yl)methyl)-7-(5-fluoro-2-(((3S,4R)-3-hydroxytetrahydro-2H-pyran-4-yl)amino)pyrimidin-4-yl)-1-isopropyl-3-methylquinolin-4(1H)-one]

Source: patent US20250136586A1, “Substituted 7-(Pyrimidin-4-yl)Quinolin-4(1H)-One Compounds as Cyclin Dependent Kinase Inhibitors” (BeiGene, Ltd., priority 2022, published 2025)
